Source: patent US20250281424A1 (New York Blood Center, Inc, priority 2020, published 2025)
Like-named read-outs stand apart in the source and are kept apart here.

How the values were obtained:
[1] = Experimentally determined pKa; assay type: physicochemical
Heparin-PF4-KKO mice = assay: In vivo activity, heparin-PF4-KKO induced thrombocytopenia (mouse model of HIT)
Experimental: Heparin-PF4-KKO mice that were induced to thrombocytopenia were administered the compound of Example 1. The dosing regimen was guided by the PK results in Table 4 (see Example A6). At T0hr, 5 mg/kg of Compound 1 was given by retro-orbital injection. 1000 units/kg heparin was injected subcutaneously at T3hr. At T4hr, 20 mg/kg of KKO antibody was administered by retro-orbital injection. Also at T4hr, an additional 5 mg/kg of the compound was injected intraperitoneally. Platelet count was measured at T8hr.

[2] = Pharmacokinetics after IV bolus in CD-1 mice; assay type: in vivo
Experimental: PK parameters were measured and reported in Table 4 as follows: C0 represents concentration in ng/ml at t=0 min; AUC0-last represents area under the curve for t=0 min to last time point; AUC0-∞ represents area under the curve for t=0 min to infinity.

[3] = Plasma protein binding (PPB, mouse); assay type: in vitro ADME; conditions: mouse, plasma; read-out: PPB mouse (% bound) (converted)
From the text: (§1) Certain exemplified compounds were examined for ADMET (absorption, distribution, metabolism, excretion and toxicity) profiling using conventional assays with the results shown in the Tables 3A-3C below.

plasma protein = assay: Plasma protein binding (PPB, mouse); assay type: in vitro ADME
From the text: as §1

[4] = mouse, plasma, CD-1 mice, 1 mg/kg IV bolus

| SMILES | pKa [1] | tolerability (Heparin-PF4-KKO mice; mice, 5 mg/kg IV and IP doses) | heparin-PF4-KKO induced thrombocytopenia in vivo (Heparin-PF4-KKO mice; mouse model of HIT (FIG. 4)) | platelet counts at 4 hr, remaining mouse (Heparin-PF4-KKO mice; one of the four mice) | platelet counts 4 hr after KKO administration (Heparin-PF4-KKO mice; three of the four mice, 5 mg/kg retro-orbital at T0hr + 5 mg/kg IP at T4hr) | time the concentration was sustained above 1 μM ([2]; 1 mg/kg, CD-1 mice (FIG. 5)) | clearance ([2]; CD-1 mice, 1 mg/kg IV) | half-life ([2]; CD-1 mice, 1 mg/kg IV) | volume of distribution ([2]; CD-1 mice, 1 mg/kg IV) | AUC(0-inf) [2, 4] | AUC(0-t) [2, 4] | half-life ([2]; mouse, plasma, CD-1 mice, 1 mg/kg IV bolus, average of 3 mice, read-out: t1/2 (converted)) | C0 ([2]; mouse, plasma, CD-1 mice, 1 mg/kg IV bolus, concentration at t=0 min) | clearance ([2]; mouse, plasma, CD-1 mice, 1 mg/kg IV bolus, read-out: Clearance) | Vd ([2]; mouse, plasma, CD-1 mice, 1 mg/kg IV bolus, read-out: Volume of distribution (Vdss)) | fraction unbound [3] | protein binding (plasma protein) |
| --- | --- | --- | --- | --- | --- | --- | --- | --- | --- | --- | --- | --- | --- | --- | --- | --- | --- |
| CC(=O)C1C(=O)c2ccc(C(=O)c3ccc4c(c3)C(=O)C(C(C)=O)C4=O)cc2C1=O (centres unmarked) [Example 1, 5,5′-carbonylbis(2-acetyl-1h-indene-1,3(2h)-dione)] | 1.99 | tolerated the 5 mg/kg IV and IP doses of the compound well | reduces heparin-PF4-KKO induced thrombocytopenia in vivo | only a little higher than DMSO controls | > 80 % of baseline | greater than 4 hours | low clearance | long half-life | low clearance and volume of distribution | 9350 ± 778 ng·h/mL | 9190 ± 704 ng·h/mL | 4.59 ± 0.584 h | 15100 ± 2070 ng/mL | 1.79 ± 0.147 mL/min/kg | 0.448 ± 0.0121 L/kg |  |  |
| CCOC(=O)C1C(=O)c2ccc(C(=O)c3ccc4c(c3)C(=O)C(C(=O)OCC)C4=O)cc2C1=O (centres unmarked) [Example 3, diethyl 5,5′-carbonylbis(1,3-dioxo-2,3-dihydro-1h-indene-2-carboxylate)] |  |  |  |  |  |  |  |  |  |  |  |  |  |  |  | 0.043 | high protein binding |
